The conditions of this data set: 101.33 kPa, Liquid.

Numbers after ± are expanded uncertainties.

A word on the mass density: it is mass per unit of volume. Take `CCCCCCC` [heptane]: the mass density (273.15 K) is given as 700.67 ± 0.62 kg/m3; the mass density (278.15 K) is recorded as 696.57 ± 0.62 kg/m3; the mass density (283.15 K) is listed as 692.4 ± 0.63 kg/m3; the mass density (288.15 K) turned out to be 688.2 ± 0.64 kg/m3; the mass density (293.15 K) is reported as 683.99 ± 0.64 kg/m3; the mass density (298.15 K) was found to be 679.75 ± 0.65 kg/m3. Moreover, the mass density (303.15 K) worked out at 675.49 ± 0.66 kg/m3; the mass density (308.15 K) is listed as 671.19 ± 0.66 kg/m3; the mass density (313.15 K) amounted to 666.87 ± 0.67 kg/m3; the mass density (318.15 K) is listed as 662.52 ± 0.68 kg/m3; the mass density (323.15 K) came to 658.13 ± 0.68 kg/m3; the mass density (328.15 K) is given as 653.71 ± 0.69 kg/m3. In addition, the mass density is, setting by setting: (333.15 K) 649.24 ± 0.7 kg/m3; (338.15 K) 644.74 ± 0.71 kg/m3; (343.15 K) 640.19 ± 0.71 kg/m3; (348.15 K) 635.6 ± 0.72 kg/m3; (353.15 K) 630.95 ± 0.73 kg/m3; (358.15 K) 626.26 ± 0.74 kg/m3.
Consider `CCCCCC` [hexane], for which the mass density (273.15 K) worked out at 677.18 ± 0.66 kg/m3; the mass density (278.15 K) was 672.79 ± 0.67 kg/m3; the mass density (283.15 K) turned out to be 668.37 ± 0.67 kg/m3; the mass density (288.15 K) was found to be 663.91 ± 0.68 kg/m3; the mass density (293.15 K) was found to be 659.42 ± 0.69 kg/m3; the mass density (298.15 K) worked out at 654.89 ± 0.69 kg/m3. The mass density runs as follows: (303.15 K) 650.33 ± 0.7 kg/m3; (308.15 K) 645.73 ± 0.71 kg/m3; (313.15 K) 641.08 ± 0.72 kg/m3; (318.15 K) 636.38 ± 0.72 kg/m3; (323.15 K) 631.64 ± 0.73 kg/m3; (328.15 K) 626.84 ± 0.74 kg/m3. Moreover, the mass density reads like this: (333.15 K) 621.99 ± 0.75 kg/m3; (338.15 K) 617.07 ± 0.75 kg/m3.
Take `CCCCC` [pentane]: the mass density by setting is: (273.15 K) 645.5 ± 0.72 kg/m3; (278.15 K) 640.7 ± 0.72 kg/m3; (283.15 K) 635.9 ± 0.73 kg/m3; (288.15 K) 631.04 ± 0.74 kg/m3; (293.15 K) 626.12 ± 0.74 kg/m3; (298.15 K) 621.14 ± 0.75 kg/m3. Also, the mass density (303.15 K) came out at 616.11 ± 0.76 kg/m3 and the mass density (308.15 K) was 611.01 ± 0.77 kg/m3.

(Values after the NIST ThermoML archive (doi:10.1016/j.jct.2005.05.020).)
